The results in this text go back to US6573279B1, “Isoquinoline derivatives or salts thereof” (priority 1999, dated 2003).

The melting point is the temperature, or range, at which the solid turns liquid.

Each structure is given as a SMILES string. Counter-ions that a name gives are not always drawn.

Turning to `COc1cc2c(cc1OC)CN(C(=O)C1CCCN(CCC(=O)Nc3cccc(Cl)c3)C1)CC2` (centres unmarked) (as salt: HCl) [Example 12], the melting point lay within 181 to 185 °C.

Regarding `COc1cc2c(cc1OC)CN(C(=O)C1CCCN(CCC(=O)Nc3ccc(OC)c(C(F)(F)F)c3)C1)CC2` (centres unmarked) (as salt: HCl) [Example 13], the melting point was in the range of 166 to 168 °C.

In turn, `COc1cc2c(cc1OC)CN(C(=O)C1CCCN(CCC(=O)Nc3ccc4ncsc4c3)C1)CC2` (centres unmarked) (as salt: HCl) [Example 14] registered a melting point of 183 to 185 °C.

On to `COc1cc(NC(=O)CCN2CCCC(C(=O)N3CCc4cc(OC)c(OC)cc4C3)C2)ccc1C` (centres unmarked) (as salt: HCl) [Example 15], for which the melting point was 171 to 173 °C.

Consider `COc1cc2c(cc1OC)CN(C(=O)C1CCCN(CCC(=O)Nc3ccc(C)c(F)c3)C1)CC2` (centres unmarked) (as salt: HCl) [Example 16], for which the melting point lay in the range of 183 to 185 °C.

In turn, `COc1cc2c(cc1OC)CN(C(=O)C1CCN(CCC(=O)Nc3ccc4c(c3)OCO4)CC1)CC2` (as salt: HCl) [Example 19] had a melting point of 203 to 206 °C.

`COc1cc2c(cc1OC)C(C)(C)CN(C(=O)C1CCCN(CCC(=O)Nc3ccc4c(c3)OCO4)C1)C2` (centres unmarked) (as salt: HCl) [Example 25] displayed a melting point of 225 to 228 °C.

Molecule `COc1cc2c(cc1OC)CN(C(=O)[C@@H]1CCCN(CCNC(=O)c3ccc(F)cc3)C1)CC2` (as salt: salt) (hydrate or solvate) [Example 49] yielded a melting point of 197 to 199 °C.

With `COc1cc2c(cc1OC)CN(C(=O)[C@H]1CCCN(CCNC(=O)c3ccc(F)cc3)C1)CC2` (as salt: salt) (hydrate or solvate) [Example 50], the melting point was 187 to 191 °C.

With `COc1ccc2c(c1)CCN(C(=O)C1CCCN(CCC(=O)Nc3ccc4c(c3)OCO4)C1)C2` (centres unmarked) (as salt: salt) [Example 17], the melting point is 179 to 180 °C.

Take `O=C(CCN1CCCC(C(=O)N2CCc3ccccc3C2)C1)Nc1ccc2c(c1)OCO2` (centres unmarked) (as salt: salt) [Example 18]: the melting point was 195 to 196 °C.

Molecule `COc1cc2c(cc1OC)CN(C(=O)C1CCCN(CCC(=O)Nc3ccc4c(c3)OCO4)C1)CCC2` (centres unmarked) (as salt: salt) [Example 20] yielded a melting point of 180 to 181 °C.

The molecule `COc1ccc(NC(=O)CCN2CCCC(C(=O)N3CCc4cc(OC)c(OC)cc4C3)C2)cn1` (centres unmarked) (as salt: salt) [Example 21] showed a melting point of 182 to 185 °C.

Molecule `COc1ccc(C(=O)NCCN2CCCC(C(=O)N3CCc4cc(OC)c(OC)cc4C3)C2)cc1C` (centres unmarked) (as salt: salt) [Example 26] showed a melting point of 114 to 117 °C.

In the case of `COc1ccc(C(=O)NCCN2CCCC(C(=O)N3CCc4cc(OC)c(OC)cc4C3)C2)cc1F` (centres unmarked) (as salt: salt) [Example 27], the melting point lay within 113 to 116 °C.

`COc1cc(C(=O)NCCN2CCCC(C(=O)N3CCc4cc(OC)c(OC)cc4C3)C2)ccc1C` (centres unmarked) (as salt: salt) [Example 28] gave a melting point of 125 to 128 °C.

`COc1cc2c(cc1OC)CN(C(=O)C1CCCN(CCNC(=O)c3ccc(F)c(F)c3)C1)CC2` (centres unmarked) (as salt: salt) [Example 29] registered a melting point of 120 to 124 °C.

`COc1cc2c(cc1OC)CN(C(=O)C1CCCN(CCNC(=O)c3ccc4c(c3)OCCO4)C1)CC2` (centres unmarked) (as salt: salt) [Example 30] yielded a melting point of 126 to 130 °C.

In turn, `COc1cc2c(cc1OC)CN(C(=O)C1CCCN(CCNC(=O)c3ccc4c(c3)OC(F)(F)O4)C1)CC2` (centres unmarked) (as salt: salt) [Example 31] displayed a melting point of 113 to 116 °C.

Molecule `CCOc1ccc(C(=O)NCCN2CCCC(C(=O)N3CCc4cc(OC)c(OC)cc4C3)C2)cc1` (centres unmarked) (as salt: salt) [Example 32] yielded a melting point of 125 to 127 °C.

`COc1cc2c(cc1OC)CN(C(=O)C1CCCN(CCNC(=O)c3ccc(OC(C)C)cc3)C1)CC2` (centres unmarked) (as salt: salt) [Example 33] showed a melting point of 116 to 119 °C.

For the molecule `COc1cc2c(cc1OC)CN(C(=O)C1CCCN(CCNC(=O)c3ccc4c(c3)OCC(=O)N4C)C1)CC2` (centres unmarked) (as salt: salt) [Example 34], the melting point lay in the range of 130 to 138 °C.

`COc1cc2c(cc1OC)CN(C(=O)C1CCCN(CCNC(=O)c3ccc4c(c3)N(C)C(=O)CO4)C1)CC2` (centres unmarked) (as salt: salt) [Example 35] had a melting point of 124 to 133 °C.

Consider `COc1cc2c(cc1OC)CN(C(=O)C1CCCN(CCNC(=O)c3ccc(F)cc3)C1)CC2` (centres unmarked) (as salt: salt) [Example 40], for which the melting point is 137 to 141 °C.

As to `COc1cc2c(cc1OC)CN(C(=O)C1CCCN(CCNC(=O)c3cccc(Br)c3)C1)CC2` (centres unmarked) (as salt: salt) [Example 41], the melting point lay within 133 to 136 °C.

The molecule `COc1cc(OC)cc(C(=O)NCCN2CCCC(C(=O)N3CCc4cc(OC)c(OC)cc4C3)C2)c1` (centres unmarked) (as salt: salt) [Example 42] had a melting point of 166 to 167 °C.

In turn, `COc1cc2c(cc1OC)CN(C(=O)C1CCCN(CCNC(=O)c3ccc(F)cc3F)C1)CC2` (centres unmarked) (as salt: salt) [Example 43] showed a melting point of 178 to 180 °C.

In the case of `COc1cc2c(cc1OC)CN(C(=O)C1CCCN(CCNC(=O)c3ccc(F)c(C(F)(F)F)c3)C1)CC2` (centres unmarked) (as salt: salt) [Example 44], the melting point was 186 to 188 °C.

The molecule `COc1cc2c(cc1OC)CN(C(=O)C1CCCN(CCNC(=O)c3ccc(F)c(Cl)c3)C1)CC2` (centres unmarked) (as salt: salt) [Example 45] registered a melting point of 111 to 112 °C.

Molecule `COc1cc2c(cc1OC)C(C)(C)CN(C(=O)C1CCCN(CCNC(=O)c3ccc4c(c3)OCO4)C1)C2` (centres unmarked) (as salt: salt) [Example 51] had a melting point of 138 to 140 °C.

For the molecule `COc1cc2c(cc1OC)CN(C(=O)[C@@H]1CCCN(CCC(=O)Nc3ccc4c(c3)OCO4)C1)CC2` (as salt: tartrate) [Example 5, (−)-3-[(R)-3-(6,7-dimethoxy-1,2,3,4-tetrahydroisoquinoline-2-carbonyl)piperidino]-N-(3,4-methylenedioxyphenyl)propanamide L-tartrate], the melting point was 174 to 175 °C.

`COc1cc2c(cc1OC)CN(C(=O)[C@H]1CCCN(CCC(=O)Nc3ccc4c(c3)OCO4)C1)CC2` (as salt: tartrate) [Example 6, (+)-3-[(S)-3-(6,7-dimethoxy-1,2,3,4-tetrahydroisoquinoline-2-carbonyl)piperidino]-N-(3,4-methylenedioxyphenyl)propanamide D-tartrate]: the melting point fell in the range of 175 to 177 °C.

`COc1ccc(NC(=O)CCN2CCCC(C(=O)N3CCc4cc(OC)c(OC)cc4C3)C2)cc1OC` (racemic) (as salt: HCl) [Example 1, (±)-3-[3-(6,7-dimethoxy-1,2,3,4-tetrahydroisoquinoline-2-carbonyl)piperidino]-N-(3,4-dimethoxyphenyl)propanamide hydrochloride] returned a melting point of 154 to 156 °C.

As to `COc1cc2c(cc1OC)CN(C(=O)C1CCCN(CCC(=O)Nc3ccc4c(c3)OCO4)C1)CC2` (racemic) (as salt: HCl) [Example 2, (±)-3-[3-(6,7-dimethoxy-1,2,3,4-tetrahydroisoquinoline-2-carbonyl)piperidino]-N-(3,4-methylenedioxyphenyl)propanamide hydrochloride], the melting point fell in the range of 226 to 228 °C.

With `COc1ccc(NC(=O)CCN2CCCC(C(=O)N3CCc4cc(OC)c(OC)cc4C3)C2)cc1` (racemic) (as salt: HCl) [Example 4, (±)-3-[3-(6,7-dimethoxy-1,2,3,4-tetrahydroisoquinoline-2-carbonyl)piperidino]-N-(4-methoxyphenyl)propanamide hydrochloride], the melting point was in the range of 211 to 213 °C.

`COc1cc2c(cc1OC)CN(C(=O)C1CCCN(CCNC(=O)c3ccc4c(c3)OCO4)C1)CC2` (racemic) (as salt: HCl) [Example 9, (±)-N-{2-[3-(6,7-dimethoxy-1,2,3,4-tetrahydrolsoquinoline-2-carbonyl)piperidino]ethyl}-3,4-methylenedioxybenzamide hydrochloride] displayed a melting point of 182 to 185 °C.

As to `COc1ccc(C(=O)NCCN2CCCC(C(=O)N3CCc4cc(OC)c(OC)cc4C3)C2)cc1OC` (racemic) (as salt: HCl) [Example 11, (±)-N-{2-[3-(6,7-dimethoxy-1,2,3,4-tetrahydroisoquinoline-2-carbonyl)-piperidino]ethyl}-3,4-dimethoxybenzamide hydrochloride], the melting point lay within 199 to 202 °C.

Take `COc1cc2c(cc1OC)CN(C(=O)[C@H]1CCCN(CCC(=O)Nc3ccc4c(c3)OCO4)C1)CC2` (racemic) (as salt: fumarate) (hydrate or solvate) [Example 53, (±)-3-[(S)-3-(6,7-dimethoxy-1,2,3,4-tetrahydroisoquinoline-2-carbonyl)piperidino]-N-(3,4-methylenedioxyphenyl)propanamide fumarate]: the melting point is 164 to 166 °C.

In turn, `COc1cc(NC(=O)CCN2CCCC(C(=O)N3CCc4cc(OC)c(OC)cc4C3)C2)cc(OC)c1` (racemic) (as salt: oxalate) [Example 3, (±)-3-[3-(6,7-dimethoxy-1,2,3,4-tetrahydroisoquinoline-2-carbonyl)piperidino]-N-(3,5-dimethoxyphenyl)propanamide 1/2 oxalate] yielded a melting point of 187 to 192 °C.

For the molecule `COc1cc2c(cc1OC)CN(C(=O)C1CCCN(CCCC(=O)Nc3ccc4c(c3)OCO4)C1)CC2` (racemic) (as salt: oxalate) [Example 7, (±)-4-[3-(6,7-dimethoxy-1,2,3,4-tetrahydroisoquinoline-2-carbonoyl)piperidino]-N-(3,4-methylenedioxyphenyl)butanamide oxalate], the melting point was 113 to 116 °C.

In turn, `COc1cc2c(cc1OC)CN(C(=O)C1CCCN(CC(=O)Nc3ccc4c(c3)OCO4)C1)CC2` (racemic) (as salt: oxalate) [Example 8, (±)-2-[3-(6,7-dimethoxy-1,2,3,4-tetrahydroisoquinoline-2-carbonyl)piperidino]-N-(3,4-methylenedioxyphenyl)ethanamide oxalate] displayed a melting point of 157 to 159 °C.
